The values below come from US12344610B2, “APOL1 inhibitors and methods of use” (Maze Therapeutics, Inc., priority 2022, dated 2025).

Where two headings read alike, the source gives them in different places.

Common to all, as to type: cell-based
In assay [1] the test system is HEK293 cells overexpressing APOL1 G2. Description: APOL1 G2 HEK293 cell rescue assay (reversal of cell death caused by overexpression of APOL1). Particulars: geometric mean of at least 2 assay runs, † = single assay run. In a few lines:
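EC50 is the half-maximal effective concentration for reversing cell death driven by APOL1 G2 overexpression in HEK293 cells. Reported as geometric mean of at least 2 runs on separate days, each run averaging duplicate wells per plate; some values from a single run.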

The test system of assay [2] is Trypanosoma brucei Lister 427 VSG221 with APOL1 G1 recombinant protein. Description: APOL1 G1 trypanosome cell rescue assay (Example B5). Particulars: geometric mean of at least 2 assay runs, † = single assay run. Here is the method:
(§1) APOL1 G0/G1/G2 viability assay for measurement of cytotoxicity reversal by compound in trypanosomes (APOL1 G0/G1/G2 trypanosome cell rescue assay).
(§2) APOL1 protein expression and purification. The mature from of APOL1 proteins, residues 28-398, were expressed from a pET28a vector with an N-terminal His-tag and TEV cleavage site. Proteins were expressed in Escherichia coli BL21-CodonPlus (DE3)-RIPL cells. Liter cultures of terrific broth were grown at 37° C. until an OD600 of ˜0.8 was reached and then induced with isopropyl β-D-1-thiogalactopyranoside (IPTG; final concentration of 500 μM). Afterwards, cultures were grown for 3 hours at 37° C. For protein purification, cell pellets were resuspended in lysis buffer (50 mM Tris, pH 8.5, 5 mM EDTA, 0.5 mM DTT, 0.5 mM PMSF) supplemented with a cocktail of protease inhibitors. Cells were lysed by sonication, centrifuged, and the resulting pellet was collected. The homogenized pellet was resuspended in wash buffer (50 mM Tris, pH 8.5, 0.5 M NaCl, 5 mM EDTA, 0.5 mM DTT, 0.5 mM PMSF, protease inhibitor cocktail) and collected by centrifugation. Inclusion body dissolution was then conducted as previously reported (PNAS 112(9) (2015) 2894-2899; www.pnas.org/cgi/doi/10.1073/pnas.1421953112; herein incorporated by reference in its entirety). The solubilized APOL1 protein was applied to a nickel column (HisTrap, GE Life Sciences) preequilibrated in buffer A (50 mM Tris, pH 8.5, 0.15 M NaCl, 1% zwittergent 3-14, protease inhibitor cocktail). The resin was washed with buffer B (50 mM Tris, pH 8.5, 0.15 M NaCl, 0.1% DDM) and TEV cleavage was conducted on column overnight. Afterwards, the column was washed with buffer B, followed by His-washing buffer (50 mM Tris, pH 8.5, 0.15 M NaCl, 0.1% DDM, 10 mM imidazole). The protein was then removed from the resin using His-elution buffer (50 mM Tris, pH 8.5, 0.15 M NaCl, 0.1% DDM, 250 mM imidazole). The sample was further purified by size exclusion chromatography using a Superdex 200 Increase column (GE Life Sciences) in 50 mM Tris, pH 8.5, 0.15 M NaCl, and 0.1% DDM buffer. All APOL1 proteins (G0, G1, and G2) were generated at Viva Biotech (Shanghai) Ltd.
(§3) Modified HMI-9 media preparation (https://tryps.rockefeller.edu/trypsru2_culture_media_preparation.html; herein incorporated by reference in its entirety). Trypanosomes were cultured in modified HMI-9 media consisting of IMDM (ThermoFisher, 12440053), 10% heat-inactivated FBS (Gibco, 10082-147), 10% Serum Plus (Sigma-Aldrich, 14008C), 1×HMI-9 supplement stock, and 1% hypoxanthine stock. The 10×HMI-9 supplement stock was made by dissolving 280 mg bathocuproine disulfonic acid (Sigma-Aldrich, 146625), 1820 mg cysteine (add after bathocuproine) (Sigma-Aldrich, 30089), 1100 mg pyruvic acid (Sigma-Aldrich, 107360), 100 mg uracil (Sigma-Aldrich, U0750), 100 mg cytosine (Sigma-Aldrich, C3506) and 140 μL 2-mercaptoethanol (Sigma-Aldrich, M3148) in 1000 mL of water. The resulting solution was aliquoted and stored at −20° C. The hypoxanthine stock was made by dissolving 4 g of NaOH into 1000 mL of water. Afterwards, 13.6 g hypoxanthine (Sigma-Aldrich, H9377) was added to this mixture. The resulting solution was aliquoted and stored at −20° C.
(§4) Assay Setup. Trypanosoma brucei Lister 427 VSG221 (ATCC, PRA-382) cells were cultured in modified HMI-9 media. All experiments were performed in 384-well, white, solid bottom, tissue culture treated plates (Greiner, 781080). Assay ready plates were generated with duplicate 11-point compound dilution series that consisted of 2-fold stepwise dilutions (0.4% DMSO final). To each well, was added 20 μL of 2 μg/mL of APOL1 G0, G1, or G2 recombinant protein in modified HMI-9 media using a MultiDrop Combi (final APOL1 protein concentration=[…]). Trypanosomes were counted using a hemacytometer and diluted in modified HMI-9 media to a concentration of 1.25×10^4 cell/mL. […]

Assay [3] concerns Trypanosoma brucei Lister 427 VSG221 with APOL1 G2 recombinant protein. Description: APOL1 G2 trypanosome cell rescue assay (Example B5). Particulars: geometric mean of at least 2 assay runs, † = single assay run. The protocol: as §1, §2, §3, §4
Assay [4] relates to HEK293 clonal cell line overexpressing APOL1 G1. In words: APOL1 G1 HEK293 cell rescue assay (Example B3). The note with it: geometric mean of at least 2 runs, † = single run, ¥ = concentration at 50% rescue estimated (no sigmoidal curve). Summed up:
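HEK293 clonal line overexpressing APOL1 G1; EC50 is half-maximal reversal of APOL1-induced cell death. Values are the geometric mean of ≥2 runs on separate days, each run the average of duplicate wells. Where no sigmoidal curve could be fitted, the concentration giving 50% rescue was estimated.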

In assay [5] the test system is Trypanosoma brucei Lister 427 VSG221 with APOL1 G0 recombinant protein. In words: APOL1 G0 trypanosome cell rescue assay (Example B5). The note with it: geometric mean of at least 2 assay runs, † = single assay run. Here is the method:
as §1, §2, §3, §4

The mark [6] stands for this setting: read-out: APOL1 G1 Trypanosome Rescue EC50, Trypanosoma brucei Lister 427 VSG221 with APOL1 G1 recombinant protein, 20 hours, CellTiter-Glo.
Setting [7] is: read-out: APOL1 G2 Trypanosome Rescue EC50, Trypanosoma brucei Lister 427 VSG221 with APOL1 G2 recombinant protein, 20 hours, CellTiter-Glo.
[8] abbreviates: HEK293 clonal line overexpressing APOL1 G1.
Setting [9] is: read-out: APOL1 G0 Trypanosome Rescue EC50, Trypanosoma brucei Lister 427 VSG221 with APOL1 G0 recombinant protein, 20 hours, CellTiter-Glo.
The mark [10] stands for this setting: Homo sapiens, HEK293, HEK293 overexpressing APOL1 G2.
[11] abbreviates: Trypanosoma brucei, 20 h, read-out: APOL1 G1 Trypanosome Rescue EC50, Trypanosoma brucei Lister 427 VSG221 with APOL1 G1 recombinant protein, 20 hours, CellTiter-Glo.
Setting [12] is: Trypanosoma brucei, 20 h, read-out: APOL1 G2 Trypanosome Rescue EC50, Trypanosoma brucei Lister 427 VSG221 with APOL1 G2 recombinant protein, 20 hours, CellTiter-Glo.
Setting [13] is: Homo sapiens, HEK293, HEK293 clonal line overexpressing APOL1 G1.
Setting [14] is: Trypanosoma brucei, 20 h, read-out: APOL1 G0 Trypanosome Rescue EC50, Trypanosoma brucei Lister 427 VSG221 with APOL1 G0 recombinant protein, 20 hours, CellTiter-Glo.

By EC50 is commonly meant the midpoint of the concentration-response curve. Take `CN1C(=O)C2(CCN(CCOc3ccc(C4(S(C)(=O)=O)CC(O)C4)cc3)CC2)c2cc(C(F)F)ccc21` (single isomer, unassigned) [Compound 279, 5-(difluoromethyl)-1-methyl-1′-(2-{4-[(trans) or (cis)-3-hydroxy-1-methanesulfonylcyclobutyl]phenoxy}ethyl)-1,2-dihydrospiro[indole-3,4′-piperidin]-2-one]: the EC50 in assay [1] (HEK293 overexpressing APOL1 G2) was 60 nM; in assay [2] (setting [6]), 283 nM; in assay [3] (setting [7]), 83.1 nM; in assay [4] (setting [8]) it was 234 nM; in assay [5] (setting [9]), 213 nM.
For `CS(=O)(=O)C1(c2ccc(OCCN3CCC4(CC3)C(=O)Nc3ccc(C(F)F)cc34)cc2)CC(O)C1` (single isomer, unassigned) [Compound 282, 5-(difluoromethyl)-1′-(2-{4-[(trans) or (cis)-3-hydroxy-1-methanesulfonylcyclobutyl]phenoxy}ethyl)-1,2-dihydrospiro[indole-3,4′-piperidin]-2-one] the same measures were 130 nM, 230 nM, 59.8 nM, 383 nM and 181 nM.
Turning to `O=C1CCc2cc(OCCN3CCC4(CC3)C(=O)Nc3ccc(C(F)F)cc34)cnc2N1C1CC(CO)C1` (single isomer, unassigned) [Compound 309, 5-(difluoromethyl)-1′-[2-({7-oxo-8-[(cis) or (trans)-3-(hydroxymethyl)cyclobutyl]-5,6,7,8-tetrahydro-1,8-naphthyridin-3-yl}oxy)ethyl]-1,2-dihydrospiro[indole-3,4′-piperidin]-2-one], the EC50 in assay [1] (setting [10]) is 55.9 nM; in assay [2] (setting [11]) it was 70.6 nM; in assay [3] (setting [12]), 23.4 nM; in assay [4] (setting [13]), 134 nM; in assay [5] (setting [14]), 58.2 nM.
For `CC1(O)CC(CN2C(=O)CCc3cc(OCCN4CCC5(CC4)C(=O)Nc4ccc(C(F)F)cc45)cnc32)C1` (single isomer, unassigned) [Compound 311, 5-(difluoromethyl)-1′-{2-[(7-oxo-8-{[(cis) or (trans)-3-hydroxy-3-methylcyclobutyl]methyl}-5,6,7,8-tetrahydro-1,8-naphthyridin-3-yl)oxy]ethyl}-1,2-dihydrospiro[indole-3,4′-piperidin]-2-one] the same measures were 38.3 nM, 50.3 nM, 13.8 nM, 100 nM and 37.4 nM.
With `CC1(O)CC(CN2C(=O)CCc3cc(OCCN4CCC5(CC4)C(=O)Nc4ccc(C(F)F)cc45)cnc32)C1` (single isomer, unassigned) [Compound 312, 5-(difluoromethyl)-1′-{2-[(7-oxo-8-{[(trans) or (cis)-3-hydroxy-3-methylcyclobutyl]methyl}-5,6,7,8-tetrahydro-1,8-naphthyridin-3-yl)oxy]ethyl}-1,2-dihydrospiro[indole-3,4′-piperidin]-2-one], the EC50 in assay [1] (HEK293 overexpressing APOL1 G2) was 24.3 nM; in assay [2] (setting [6]) it was 34.4 nM; in assay [3] (setting [7]) it was 10.1 nM; in assay [4] (setting [8]), 66.5 nM; in assay [5] (setting [9]) it was 28.2 nM.
Consider `CC1(O)CC(CN2C(=O)CCc3cc(OCCN4CCC5(CC4)C(=O)Nc4ccc(Cl)cc45)cnc32)C1` (single isomer, unassigned) [Compound 313, 5-chloro-1′-{2-[(7-oxo-8-{[(cis) or (trans)-3-hydroxy-3-methylcyclobutyl]methyl}-5,6,7,8-tetrahydro-1,8-naphthyridin-3-yl)oxy]ethyl}-1,2-dihydrospiro[indole-3,4′-piperidin]-2-one], for which the EC50 in assay [1] (HEK293 overexpressing APOL1 G2) is 63.3 nM; in assay [2] (setting [6]), 71.8 nM; in assay [3] (setting [12]), 20.2 nM; in assay [4] (setting [8]), 135 nM; in assay [5] (setting [14]), 54.5 nM.
Take `CC1(O)CC(c2ncc(OCCN3CCC4(CC3)C(=O)Nc3ccc(Cl)cc34)cn2)C1` (single isomer, unassigned) [Compound 392, 5-chloro-1′-[2-({2-[(trans) or (cis)-3-hydroxy-3-methylcyclobutyl)pyrimidin-5-yl}oxy)ethyl]-1,2-dihydrospiro[indole-3,4′-piperidin]-2-one]: the EC50 in assay [1] (HEK293 overexpressing APOL1 G2) is 27.1 nM; in assay [2] (setting [6]) it was 79.4 nM; in assay [3] (setting [7]) it was 28.5 nM; in assay [4] (setting [13]) it was 89.9 nM; in assay [5] (setting [9]), 70 nM.
In the case of `O=C1CCc2cc(OCCN3CCC4(CC3)C(=O)Nc3ccc(Cl)cc34)cnc2N1[C@H]1C[C@](O)(C2CC2)C1` (single isomer, unassigned) [Compound 398, 5-chloro-1′-[2-({7-oxo-8-[(cis)-3-cyclopropyl-3-hydroxycyclobutyl]-5,6,7,8-tetrahydro-1,8-naphthyridin-3-yl}oxy)ethyl]-1,2-dihydrospiro[indole-3,4′-piperidin]-2-one], the EC50 was 20.1 nM in assay [1] (setting [10]); 52.2 nM in assay [2] (setting [11]); 18 nM in assay [3] (setting [12]); 374 nM in assay [4] (setting [13]); 53.6 nM in assay [5] (setting [14]).
